How the values were obtained:
Type in all cases: in vivo, human
[1] = Example 2: open-label, randomised, single and repeat dose Phase I pharmacokinetic study in subjects with iron deficiency; conditions: for reticulocyte haemoglobin, Mean change: baseline to day 8; for Transferrin saturation above baseline / mean serum total iron concentration above baseline: 6 h postdose
Procedure: These studies were primarily pharmacokinetic and conducted in subjects with iron deficiency having active inflammatory disease or acute chronic inflammation. An open-label, randomised, single and repeat dose parallel group Phase I pharmacokinetic study was carried out to evaluate the effect of single and repeated twice daily (bid) oral doses of ST10 at 30 mg, 60 mg and 90 mg for 8 days.
24 subjects with iron deficiency (with or without anaemia) were randomly allocated to one of the three ST10 dose groups as follows:
Group 1: 9 subjects received ST10, 30 mg twice daily for 7 days (days 1-7) plus a final 30 mg dose on the morning of day 8.
Group 2: 8 subjects received ST10, 60 mg twice daily for 7 days (days 1-7) plus a final 60 mg dose on the morning of day 8.
Group 3: 7 subjects received ST10, 90 mg twice daily for 7 days (days 1-7) plus a final 90 mg dose on the morning of day 8.
On day 1, following fasting for at least 1.5-2 hours beforehand, ST10 was administered (30 mg, 60 mg or 90 mg) and blood samples collected over the following 6 h for analysis. 60 mg was administered as two 30 mg capsules and 90 mg was administered as three 30 mg capsules, both as a single dose. Subjects continued dosing with ST10 on the evening of day 1 then every morning and evening for the next 6 days (Days 2 to 7).
On day 8 following fasting for at least 1.5-2 hours beforehand the last dosing of ST10 was administered (30 mg, 60 mg or 90 mg) and blood samples collected over the following 6 h for analysis.
On Days 1 and 8 blood samples were collected predose (0 h=time of ST10 dose) and at 5 minutes (for NTBI only), 15 minutes, 30 minutes, 45 minutes, and 1, 1.5, 2, 3, 4 and 6 h postdose.
Serum concentrations of transferrin, total iron binding capacity (TIBC), ferritin and soluble transferrin receptor; and reticulocyte haemoglobin concentrations (CHr) in whole blood were measured by central laboratories using appropriately validated methods.
These studies used transferrin saturation and total serum iron as measurements of iron uptake from the gut into the transport mechanisms. In addition serum ferritin was used as a measure of iron storage status at the end of the dosing period; all of these measurements are standard and well recognised.
One subject in the 60 mg dose group prematurely withdrew from the study on Day 7, so full profiles of all serum iron parameters were available in the 30 mg dose group for 9 subjects (days 1 and 8), in the 60 mg dose group 8 subjects on day 1 and for 7 subjects on day 8, and in the 90 mg dose group for 7 subjects (days 1 and 8).

[2] = Example 1: 12-week placebo-controlled study of ST10 30 mg twice daily in IDA patients with IBD
Procedure: 128 patients suffering from IDA were randomised. Of this group […] were suffering from Crohn's disease and 53 were suffering from ulcerative colitis. All had mild to moderate disease activity and anaemia associated with IBD which was measured according to low haemoglobin levels ([…] for women and 13 g/dL (male) and were intolerant of ferrous iron, or it could not be used. There were no restrictions on the use of gastric pH modifying agents or medications.
60 patients were treated with ST10 at a 30 mg dose twice daily, before breakfast and prior to sleep on an empty stomach for a period of 12 weeks.
60 patients received a matched placebo capsule and were treated in the same way for the same period. Withdrawal from the study before 12 weeks occurred in seven ST10 subjects and nine placebo subjects. 87% of subjects completed 12 weeks of treatment.

[3] = Example 1: treatment with 30 mg ST10 twice daily for up to 64 weeks; conditions: 30 mg twice daily for up to 64 weeks, 109 subjects
Procedure: 109 of the 128 subjects were treated with 30 mg ST10 twice daily for up to 64 weeks.

- Transferrin saturation above baseline ([1]; Day 1, 30 mg dose group): 17.0%
- mean serum total iron concentration above baseline ([1]; Day 1, 30 mg dose group): 11.8 µmol/L
- Transferrin saturation above baseline ([1]; Day 1, 60 mg dose group): 47.3%
- mean serum total iron concentration above baseline ([1]; Day 1, 60 mg dose group): 33.0 µmol/L
- Transferrin saturation above baseline ([1]; Day 1, 90 mg dose group): 33.3%
- mean serum total iron concentration above baseline ([1]; Day 1, 90 mg dose group): 24.3 µmol/L
- Transferrin saturation, average maximum value ([1]; Day 1, 30 mg dose group): 45.6%
- serum total iron concentration, average maximum ([1]; Day 1, 30 mg dose group): 32.3 µmol/L
- Transferrin saturation, average maximum value ([1]; Day 1, 60 mg dose group): 69.8%
- serum total iron concentration, average maximum ([1]; Day 1, 60 mg dose group): 49.1 µmol/L
- Transferrin saturation, average maximum value ([1]; Day 1, 90 mg dose group): 67.3%
- serum total iron concentration, average maximum ([1]; Day 1, 90 mg dose group): 48.7 µmol/L
- blackened stools ([2]; patients in the study of Example 1): did not report blackened stools
Substance: ferric trimaltol [ST10]
- reticulocyte haemoglobin, Baseline ([1]; 30 mg bid): 33.6
- reticulocyte haemoglobin, Mean change ([1]; 30 mg bid): 0.9
- reticulocyte haemoglobin, Day 8 ([1]; 30 mg bid): 34.6
- reticulocyte haemoglobin, Baseline ([1]; 60 mg bid): 31.0
- reticulocyte haemoglobin, Mean change ([1]; 60 mg bid): 3.3
- reticulocyte haemoglobin, Day 8 ([1]; 60 mg bid): 34.1
- reticulocyte haemoglobin, Baseline ([1]; 90 mg bid): 30.8
- reticulocyte haemoglobin, Mean change ([1]; 90 mg bid): 3.0
- reticulocyte haemoglobin, Day 8 ([1]; 90 mg bid): 33.9
- Mean serum ferritin ([1]; day 1, 30 mg dose group): around 15 μg/L
- Mean serum ferritin ([1]; day 1, 60 mg dose group): ~10 µg/L
- Mean serum ferritin ([1]; day 1, 90 mg dose group): ~13 µg/L
- Mean serum ferritin ([1]; day 8, 30 mg dose group): ~22 µg/L
- Mean serum ferritin ([1]; day 8, 60 mg dose group): ~22 µg/L
- Mean serum ferritin ([1]; day 8, 90 mg dose group): ~32 µg/L
- tolerability ([1]; doses of 30 mg and above): well tolerated
- improvement of haemoglobin levels ([2]; 30 mg twice daily, 8 weeks, p<0.0001): 1.75 g/dL
- subjects with adverse events (mainly gastrointestinal) ([2]; 30 mg twice daily, 12 weeks): 38%
- subjects with normalised haemoglobin levels ([2]; 30 mg twice daily, by week 12): More than 65%
- tolerability ([2]; 30 mg twice daily, duration of the treatment): well tolerated
- Mean Hb increase from baseline to Week 12 ([2]; 30 mg twice daily, empty stomach, 12 weeks): 2.26 g/dL
- improvement of haemoglobin levels ([2]; 30 mg twice daily, week 4, p<0.0001): 1.05 g/dL
- mean Hb at Week 12 ([2]; 30 mg twice daily, week 12): 13.20 g/dL
- mean improvement in Hb, change from baseline compared to placebo ([2]; 30 mg twice daily, week 12, p<0.0001): 2.25 g/dL
- mean Hb at baseline ([2]; ST10-treated subjects, baseline): 11.10 g/dL
- subjects with adverse reactions [3]: 23%
